In paper PMC6154583, “Optimized 4,5-Diarylimidazoles as Potent/Selective Inhibitors of Protein Kinase CK1δ and Their Structural Relation to p38α MAPK” (Molecules : A Journal of Synthetic Chemistry and Natural …, 2017):

Experiments:
Colo357 cells = experiment: MTT viability assay; format: cell-based, human; details: Homo sapiens, COLO357, 48 h incubation, mean ± SD, n = 3
Experimental: (§1) The human pancreatic cancer cell lines Colo357 [61], Panc-1 [62], and MiaPaCa-2 [63] were grown in Dulbecco’s modified Eagle’s medium (DMEM). Panc89 [64] was grown in DMEM:RPMI-1640 medium in ratio 1:1. The human colon adenocarcinoma cell line HT-29 [65] was grown in McCoy’s 5A medium. All media were supplemented with 10% fetal calf serum (FCS), 100 units·mL^−1 penicillin, 100 µg∙mL^−1 streptomycin and 2 mM glutamine. All cells were grown at 37 °C in a humidified 5% carbon dioxide atmosphere.
(§2) In order to determine the cytotoxic effects of investigated inhibitors conventional MTT assay were used. 1 × 10^4 cells∙well^−1 were seeded in 96-well cell culture plates and cultivated for 24 h. Cell lines were exposed to increasing concentrations of the indicated inhibitor compounds, with untreated and DMSO-treated cells serving as control. After an incubation period of 48 h 10 µL of MTT solution (5 mg∙mL^−1 in PBS) were added and cells were incubated for 4 h. MTT-containing medium was carefully removed and 100 µL acidic isopropanol (0.04 N HCl in isopropanol) per well were added. For dissolution of formazan crystals plates were shaken for 30 min on an orbital shaker in the dark. Finally, dissolved crystals were measured spectrophotometrically at […]. All experiments were performed in triplicate with four technical replicates per assay. Results were normalized considering the mean optical density value of control wells as 100%. GraphPad Prism 6 (La Jolla, CA, USA) software was used to calculate EC50 values.

Panc89 cells = experiment: MTT viability assay; format: cell-based, human; details: Homo sapiens, 48 h incubation, mean ± SD, n = 3
Experimental: as §1, §2

ABL1 = ABL1 (Homo sapiens, UniProt P00519); experiment: ProQinase 33PanQinase selectivity profiling; format: biochemical; details: 100 nM, relative to control, read-out: Residual activity (%)
ACV-R2B = biological target: T1, ACV-R2B (Homo sapiens, UniProt Q13705); experiment: ProQinase 33PanQinase selectivity profiling; format: biochemical; details: 100 nM, relative to control, read-out: Residual activity (%)
T1 construct: purchased ProQinase GmbH (Freiburg, Germany)

AKT1 aa106-480 = biological target: T2, AKT1 aa106-480 (Homo sapiens, UniProt P31749); experiment: ProQinase 33PanQinase selectivity profiling; format: biochemical; details: 100 nM, relative to control, read-out: Residual activity (%)
T2 construct: AKT1 aa106-480; purchased ProQinase GmbH (Freiburg, Germany)

AKT3 aa106-479 = biological target: T3, AKT3 aa106-479 (Homo sapiens, UniProt Q9Y243); experiment: ProQinase 33PanQinase selectivity profiling; format: biochemical; details: 100 nM, relative to control, read-out: Residual activity (%)
T3 construct: AKT3 aa106-479; purchased ProQinase GmbH (Freiburg, Germany)

AMPK-alpha1 aa1-550 = biological target: T4, AMPK-alpha1 aa1-550 (Homo sapiens, UniProt Q13131); experiment: ProQinase 33PanQinase selectivity profiling; format: biochemical; details: 100 nM, relative to control, read-out: Residual activity (%)
T4 construct: AMPK-alpha1 aa1-550; purchased ProQinase GmbH (Freiburg, Germany)

Aurora-C = biological target: T5, Aurora-C (Homo sapiens, UniProt Q9UQB9); experiment: ProQinase 33PanQinase selectivity profiling; format: biochemical; details: 100 nM, relative to control, read-out: Residual activity (%)
T5 construct: purchased ProQinase GmbH (Freiburg, Germany)

AXL = biological target: T6, AXL (Homo sapiens, UniProt P30530); experiment: ProQinase 33PanQinase selectivity profiling; format: biochemical; details: 100 nM, relative to control, read-out: Residual activity (%)
T6 construct: purchased ProQinase GmbH (Freiburg, Germany)

BLK = BLK (Homo sapiens, UniProt P51451); experiment: ProQinase 33PanQinase selectivity profiling; format: biochemical; details: 100 nM, relative to control, read-out: Residual activity (%)
BRSK1 = BRSK1 (Homo sapiens, UniProt Q8TDC3); experiment: ProQinase 33PanQinase selectivity profiling; format: biochemical; details: 100 nM, relative to control, read-out: Residual activity (%)
BRSK2 = BRSK2 (Homo sapiens, UniProt Q8IWQ3); experiment: ProQinase 33PanQinase selectivity profiling; format: biochemical; details: 100 nM, relative to control, read-out: Residual activity (%)
CAMK2A = CAMK2A (Homo sapiens, UniProt Q9UQM7); experiment: ProQinase 33PanQinase selectivity profiling; format: biochemical; details: 100 nM, relative to control, read-out: Residual activity (%)
CAMK2D = CAMK2D (Homo sapiens, UniProt Q13557); experiment: ProQinase 33PanQinase selectivity profiling; format: biochemical; details: 100 nM, relative to control, read-out: Residual activity (%)
CDC42BPA = biological target: T7, CDC42BPA (Homo sapiens, UniProt Q5VT25); experiment: ProQinase 33PanQinase selectivity profiling; format: biochemical; details: 100 nM, relative to control, read-out: Residual activity (%)
T7 construct: purchased ProQinase GmbH

CDK3/CycC = CDK3/CycC (Homo sapiens, UniProt Q00526); experiment: ProQinase 33PanQinase selectivity profiling; format: biochemical; details: 100 nM, relative to control, read-out: Residual activity (%)
CDK4/CycD3 = CDK4/CycD3 (Homo sapiens, UniProt P11802); experiment: ProQinase 33PanQinase selectivity profiling; format: biochemical; details: 100 nM, relative to control, read-out: Residual activity (%)
CDK9/CycK = CDK9/CycK (Homo sapiens, UniProt P50750); experiment: ProQinase 33PanQinase selectivity profiling; format: biochemical; details: 100 nM, relative to control, read-out: Residual activity (%)
CHK2 = biological target: T8, CHK2 (Homo sapiens, UniProt O96017); experiment: ProQinase 33PanQinase selectivity profiling; format: biochemical; details: 100 nM, relative to control, read-out: Residual activity (%)
T8 construct: purchased ProQinase GmbH

CK1-gamma3 = CK1-gamma3 (Homo sapiens, UniProt Q9Y6M4); experiment: ProQinase 33PanQinase selectivity profiling; format: biochemical; details: 100 nM, relative to control
CLK1 = CLK1 (Homo sapiens, UniProt P49759); experiment: ProQinase 33PanQinase selectivity profiling; format: biochemical; details: 100 nM, relative to control, read-out: Residual activity (%)
CLK2 = CLK2 (Homo sapiens, UniProt P49760); experiment: ProQinase 33PanQinase selectivity profiling; format: biochemical; details: 100 nM, relative to control, read-out: Residual activity (%)
CLK3 = biological target: T9, CLK3 (Homo sapiens, UniProt P49761); experiment: ProQinase 33PanQinase selectivity profiling; format: biochemical; details: 100 nM, relative to control, read-out: Residual activity (%)
T9 construct: purchased ProQinase GmbH

DAPK1 = DAPK1 (Homo sapiens, UniProt P53355); experiment: ProQinase 33PanQinase selectivity profiling; format: biochemical; details: 100 nM, relative to control, read-out: Residual activity (%)
DAPK3 = DAPK3 (Homo sapiens, UniProt O43293); experiment: ProQinase 33PanQinase selectivity profiling; format: biochemical; details: 100 nM, relative to control, read-out: Residual activity (%)
DNA-PK = DNA-PK (Homo sapiens, UniProt P78527); experiment: ProQinase 33PanQinase selectivity profiling; format: biochemical; details: 100 nM, relative to control, read-out: Residual activity (%)
DYRK1A = DYRK1A (Homo sapiens, UniProt Q13627); experiment: ProQinase 33PanQinase selectivity profiling; format: biochemical; details: 100 nM, relative to control, read-out: Residual activity (%)
EEF2K = EEF2K (Homo sapiens, UniProt O00418); experiment: ProQinase 33PanQinase selectivity profiling; format: biochemical; details: 100 nM, relative to control, read-out: Residual activity (%)
EIF2AK2 = biological target: T10, EIF2AK2 (Homo sapiens, UniProt P19525); experiment: ProQinase 33PanQinase selectivity profiling; format: biochemical; details: 100 nM, relative to control, read-out: Residual activity (%)
T10 construct: purchased ProQinase GmbH

EPHA3 = EPHA3 (Homo sapiens, UniProt P29320); experiment: ProQinase 33PanQinase selectivity profiling; format: biochemical; details: 100 nM, relative to control, read-out: Residual activity (%)
JNK3 = JNK3 (Homo sapiens, UniProt P53779); experiment: ProQinase 33PanQinase selectivity profiling; format: biochemical; details: 100 nM, relative to control, read-out: residual activity
DYRK4 = DYRK4 (Homo sapiens, UniProt Q9NR20); experiment: biochemical; details: read-out: Residual activity (%)
Chain of DYRK4 (Q9NR20 whole entry): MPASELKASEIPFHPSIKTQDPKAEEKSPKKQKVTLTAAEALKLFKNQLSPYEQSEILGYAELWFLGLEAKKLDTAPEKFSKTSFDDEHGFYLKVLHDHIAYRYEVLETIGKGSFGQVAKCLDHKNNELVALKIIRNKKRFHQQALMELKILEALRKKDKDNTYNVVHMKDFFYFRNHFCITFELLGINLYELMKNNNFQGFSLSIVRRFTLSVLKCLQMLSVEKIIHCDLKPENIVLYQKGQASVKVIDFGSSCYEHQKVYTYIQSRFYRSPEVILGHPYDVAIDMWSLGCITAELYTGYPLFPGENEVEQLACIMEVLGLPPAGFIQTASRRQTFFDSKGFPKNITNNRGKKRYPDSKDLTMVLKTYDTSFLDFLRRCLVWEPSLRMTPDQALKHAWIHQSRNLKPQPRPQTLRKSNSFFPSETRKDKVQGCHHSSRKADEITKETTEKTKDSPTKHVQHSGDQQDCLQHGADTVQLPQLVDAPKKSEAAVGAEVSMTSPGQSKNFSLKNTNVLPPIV

Chain of CK1-gamma3 (Q9Y6M4 whole entry): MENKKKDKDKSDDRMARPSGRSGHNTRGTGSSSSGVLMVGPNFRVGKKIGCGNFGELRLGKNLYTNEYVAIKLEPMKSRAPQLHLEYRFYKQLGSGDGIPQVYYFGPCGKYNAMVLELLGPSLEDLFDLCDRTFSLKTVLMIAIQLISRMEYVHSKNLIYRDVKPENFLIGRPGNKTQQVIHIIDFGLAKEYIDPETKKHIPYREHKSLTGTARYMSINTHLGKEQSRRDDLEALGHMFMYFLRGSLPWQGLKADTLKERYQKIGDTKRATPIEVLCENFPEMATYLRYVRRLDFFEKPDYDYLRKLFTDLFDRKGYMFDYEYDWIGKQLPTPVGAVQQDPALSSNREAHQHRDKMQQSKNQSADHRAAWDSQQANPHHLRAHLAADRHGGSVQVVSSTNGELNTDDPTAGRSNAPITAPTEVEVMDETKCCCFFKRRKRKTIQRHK
Chain of DAPK1 (P53355 whole entry): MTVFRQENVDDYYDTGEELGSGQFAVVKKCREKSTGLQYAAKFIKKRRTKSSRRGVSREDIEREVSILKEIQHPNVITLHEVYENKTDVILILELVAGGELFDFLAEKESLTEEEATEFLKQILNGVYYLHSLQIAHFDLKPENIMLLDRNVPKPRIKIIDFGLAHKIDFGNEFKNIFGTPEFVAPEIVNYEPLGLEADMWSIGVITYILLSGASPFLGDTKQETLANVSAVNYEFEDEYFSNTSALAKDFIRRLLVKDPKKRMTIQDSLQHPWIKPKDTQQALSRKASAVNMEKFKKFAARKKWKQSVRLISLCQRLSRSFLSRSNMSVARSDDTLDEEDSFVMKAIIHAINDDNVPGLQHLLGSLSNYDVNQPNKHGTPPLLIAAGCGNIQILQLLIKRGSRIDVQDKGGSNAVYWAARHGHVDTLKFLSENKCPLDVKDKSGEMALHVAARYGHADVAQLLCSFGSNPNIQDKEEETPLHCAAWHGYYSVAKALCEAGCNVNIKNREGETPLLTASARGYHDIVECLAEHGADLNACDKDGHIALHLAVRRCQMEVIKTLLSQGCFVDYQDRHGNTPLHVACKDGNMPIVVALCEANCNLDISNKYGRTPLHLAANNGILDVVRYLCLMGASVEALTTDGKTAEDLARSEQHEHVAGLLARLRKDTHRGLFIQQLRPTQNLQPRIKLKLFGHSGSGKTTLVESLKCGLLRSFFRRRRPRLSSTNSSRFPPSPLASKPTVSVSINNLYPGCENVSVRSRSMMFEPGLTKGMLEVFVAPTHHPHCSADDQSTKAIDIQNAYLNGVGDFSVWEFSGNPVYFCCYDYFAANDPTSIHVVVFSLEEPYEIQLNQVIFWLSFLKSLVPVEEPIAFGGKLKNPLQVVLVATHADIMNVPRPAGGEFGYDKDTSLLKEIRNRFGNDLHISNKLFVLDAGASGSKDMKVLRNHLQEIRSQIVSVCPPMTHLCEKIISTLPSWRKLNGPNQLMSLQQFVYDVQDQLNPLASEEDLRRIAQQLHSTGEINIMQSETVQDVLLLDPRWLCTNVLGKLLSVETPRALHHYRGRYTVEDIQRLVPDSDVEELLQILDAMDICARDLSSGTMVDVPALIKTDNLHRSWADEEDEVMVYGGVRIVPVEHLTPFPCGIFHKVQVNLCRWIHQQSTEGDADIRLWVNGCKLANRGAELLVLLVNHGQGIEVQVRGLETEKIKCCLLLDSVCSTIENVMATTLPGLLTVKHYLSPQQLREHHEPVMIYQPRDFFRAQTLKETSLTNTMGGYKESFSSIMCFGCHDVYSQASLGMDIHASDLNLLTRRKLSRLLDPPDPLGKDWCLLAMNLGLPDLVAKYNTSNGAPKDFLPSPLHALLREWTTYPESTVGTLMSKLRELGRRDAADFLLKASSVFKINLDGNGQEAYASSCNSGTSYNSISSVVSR
Chain of ABL1 (P00519 whole entry): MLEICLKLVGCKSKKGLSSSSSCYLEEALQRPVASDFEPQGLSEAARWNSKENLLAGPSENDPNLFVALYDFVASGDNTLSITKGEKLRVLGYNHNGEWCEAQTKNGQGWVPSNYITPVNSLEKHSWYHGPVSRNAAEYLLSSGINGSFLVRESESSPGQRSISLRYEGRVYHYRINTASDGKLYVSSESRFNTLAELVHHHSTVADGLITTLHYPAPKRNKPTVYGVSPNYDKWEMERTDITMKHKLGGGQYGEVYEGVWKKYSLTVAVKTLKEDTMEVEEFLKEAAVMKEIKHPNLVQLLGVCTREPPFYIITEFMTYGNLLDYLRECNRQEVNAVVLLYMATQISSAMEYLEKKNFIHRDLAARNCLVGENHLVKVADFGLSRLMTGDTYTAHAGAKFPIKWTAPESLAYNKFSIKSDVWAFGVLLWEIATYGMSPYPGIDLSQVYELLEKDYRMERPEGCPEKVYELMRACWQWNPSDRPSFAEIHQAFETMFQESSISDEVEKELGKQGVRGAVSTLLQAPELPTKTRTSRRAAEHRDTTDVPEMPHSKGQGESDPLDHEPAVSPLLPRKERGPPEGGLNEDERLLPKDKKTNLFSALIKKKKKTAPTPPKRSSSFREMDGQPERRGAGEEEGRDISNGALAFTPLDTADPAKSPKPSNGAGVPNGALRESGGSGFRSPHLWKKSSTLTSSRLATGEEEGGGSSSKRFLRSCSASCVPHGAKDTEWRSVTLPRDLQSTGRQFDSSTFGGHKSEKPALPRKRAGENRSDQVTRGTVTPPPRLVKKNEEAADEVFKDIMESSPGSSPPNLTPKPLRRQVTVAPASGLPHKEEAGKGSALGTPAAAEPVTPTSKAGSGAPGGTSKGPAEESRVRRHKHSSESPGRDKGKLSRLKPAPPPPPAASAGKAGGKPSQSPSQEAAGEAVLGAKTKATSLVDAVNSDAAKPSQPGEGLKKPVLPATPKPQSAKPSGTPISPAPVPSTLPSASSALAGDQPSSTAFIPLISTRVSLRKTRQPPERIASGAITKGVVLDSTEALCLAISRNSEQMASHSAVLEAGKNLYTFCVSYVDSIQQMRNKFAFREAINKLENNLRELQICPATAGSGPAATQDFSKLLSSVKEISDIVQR
T2 sequence (P31749 106-480): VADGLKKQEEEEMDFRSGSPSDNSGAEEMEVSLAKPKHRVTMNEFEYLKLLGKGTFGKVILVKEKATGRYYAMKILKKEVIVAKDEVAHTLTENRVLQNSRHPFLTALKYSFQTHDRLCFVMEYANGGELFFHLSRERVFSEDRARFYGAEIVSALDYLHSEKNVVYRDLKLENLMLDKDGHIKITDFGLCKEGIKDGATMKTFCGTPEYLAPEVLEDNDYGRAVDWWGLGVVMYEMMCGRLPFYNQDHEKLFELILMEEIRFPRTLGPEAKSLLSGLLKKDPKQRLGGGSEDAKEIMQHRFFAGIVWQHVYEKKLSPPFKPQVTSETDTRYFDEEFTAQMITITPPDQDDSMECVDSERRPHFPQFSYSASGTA
T9 sequence (P49761 whole entry): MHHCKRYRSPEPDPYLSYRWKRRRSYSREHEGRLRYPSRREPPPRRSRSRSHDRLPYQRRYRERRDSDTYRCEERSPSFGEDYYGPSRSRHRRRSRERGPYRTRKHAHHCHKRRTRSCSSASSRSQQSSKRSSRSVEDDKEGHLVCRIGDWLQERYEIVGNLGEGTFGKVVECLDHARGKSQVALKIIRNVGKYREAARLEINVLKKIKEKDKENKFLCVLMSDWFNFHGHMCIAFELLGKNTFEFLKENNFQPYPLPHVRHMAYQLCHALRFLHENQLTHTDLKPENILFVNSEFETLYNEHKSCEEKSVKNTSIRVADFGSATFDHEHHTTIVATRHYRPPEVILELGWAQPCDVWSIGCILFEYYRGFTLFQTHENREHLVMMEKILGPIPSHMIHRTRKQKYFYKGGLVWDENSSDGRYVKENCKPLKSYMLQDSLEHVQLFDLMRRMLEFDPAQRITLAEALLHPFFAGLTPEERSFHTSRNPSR
T8 sequence (O96017 whole entry): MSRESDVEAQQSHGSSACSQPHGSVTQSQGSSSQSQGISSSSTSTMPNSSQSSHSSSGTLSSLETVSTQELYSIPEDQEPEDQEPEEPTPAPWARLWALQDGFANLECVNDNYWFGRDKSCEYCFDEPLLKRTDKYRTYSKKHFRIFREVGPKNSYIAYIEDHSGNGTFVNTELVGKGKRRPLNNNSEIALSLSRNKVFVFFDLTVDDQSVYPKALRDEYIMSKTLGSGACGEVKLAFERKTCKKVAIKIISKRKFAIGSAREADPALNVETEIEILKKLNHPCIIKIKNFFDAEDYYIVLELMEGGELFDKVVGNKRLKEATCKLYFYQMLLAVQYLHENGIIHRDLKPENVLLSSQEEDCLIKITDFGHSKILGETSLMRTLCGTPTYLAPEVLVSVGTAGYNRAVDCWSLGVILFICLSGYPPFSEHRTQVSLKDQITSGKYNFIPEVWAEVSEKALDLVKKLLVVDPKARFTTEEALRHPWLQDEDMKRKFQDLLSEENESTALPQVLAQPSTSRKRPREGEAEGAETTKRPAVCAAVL

COc1ccc(OC)c(CCC(=O)Nc2cc(-c3nc(SC)[nH]c3-c3ccc(F)cc3)ccn2)c1 [11b, 3-(2,5-Dimethoxyphenyl)-N-(4-(5-(4-fluorophenyl)-2-(methylthio)-1H-imidazol-4-yl)-pyridin-2-yl)-propanamide]
EC50 (Colo357 cells): 3.5 ± 0.3 µM | EC50 (Panc89 cells): 1.5 ± 0.4 µM | remaining activity at 0.1 µM (ABL1): 100% | remaining activity at 0.1 µM (ACV-R2B): 97% | remaining activity at 0.1 µM (AKT1 aa106-480): 90% | remaining activity at 0.1 µM (AKT3 aa106-479): 83% | remaining activity at 0.1 µM (AMPK-alpha1 aa1-550): 96% | remaining activity at 0.1 µM (Aurora-C): 93% | remaining activity at 0.1 µM (AXL): 104% | remaining activity at 0.1 µM (BLK): 77% | remaining activity at 0.1 µM (BRSK1): 89% | remaining activity at 0.1 µM (BRSK2): 105% | remaining activity at 0.1 µM (CAMK2A): 95% | remaining activity at 0.1 µM (CAMK2D): 96% | remaining activity at 0.1 µM (CDC42BPA): 104% | remaining activity at 0.1 µM (CDK3/CycC): 95% | remaining activity at 0.1 µM (CDK4/CycD3): 88% | remaining activity at 0.1 µM (CDK9/CycK): 103% | remaining activity at 0.1 µM (CHK2): 98% | Residual activity (%) (CK1-gamma3): unaffected | remaining activity at 0.1 µM (CK1-gamma3; read-out: Residual activity (%)): 73% | remaining activity at 0.1 µM (CLK1): 105% | remaining activity at 0.1 µM (CLK2): 101% | remaining activity at 0.1 µM (CLK3): 98% | remaining activity at 0.1 µM (DAPK1): 96% | remaining activity at 0.1 µM (DAPK3): 85% | remaining activity at 0.1 µM (DNA-PK): 95% | remaining activity at 0.1 µM (DYRK1A): 96% | remaining activity at 0.1 µM (EEF2K): 84% | remaining activity at 0.1 µM (EIF2AK2): 91% | remaining activity at 0.1 µM (EPHA3): 97% | remaining activity at 0.1 µM (JNK3): 37% | remaining activity at 0.1 µM (DYRK4): 100%
